Results from ChEMBL document CHEMBL3046719, “Photooxygenation of Nimonol, a Tetranortriterpenoid from Azadirachta indica. A. Juss” (2002).

Experiments:
Format in all cases: functional
Spodoptera litura [1] = experiment: Antifeedant activity against Spodoptera litura at 1 ug
Spodoptera litura [2] = experiment: Antifeedant activity against Spodoptera litura at 0.5 ug
Spodoptera litura [3] = experiment: Antifeedant activity against Spodoptera litura at 5 ug

SMILES	Activity (Spodoptera litura [1]) [%]	Activity (Spodoptera litura [2]) [%]	Activity (Spodoptera litura [3]) [%]
C/C=C(\C)C(=O)O[C@H]1C[C@@H](OC(C)=O)[C@@]2(C(=O)OC)CO[C@H]3[C@@H](O)[C@@](C)([C@]45O[C@@]4(C)[C@@H]4C[C@H]5O[C@@H]5OC=C[C@@]54O)[C@H]4[C@]1(CO[C@]4(O)C(=O)OC)[C@@H]32 [AZADIRACHTIN A]	85.5	83.3	100
CC(=O)O[C@@H]1[C@H](O)[C@H]2C(C)(C)C(=O)C=C[C@]2(C)[C@H]2CC[C@]3(C)C(=CC[C@H]3c3ccoc3)[C@]12C [NIMONOL]	55.7	32.5	32.2
CC(=O)O[C@@H]1[C@H](O)[C@H]2C(C)(C)C(=O)C=C[C@]2(C)[C@H]2CC[C@@]3(C)[C@H](C4=CC(O)OC4=O)C[C@@H]4O[C@@]43[C@]12C (some centres not stated) [NIMONOLIDE]	80.2	67.5	82.5
CC(=O)O[C@@H]1[C@H](O)[C@H]2C(C)(C)C(=O)C=C[C@]2(C)[C@H]2CC[C@@]3(C)[C@H](C45CC(O)OC4O5)C[C@@H]4O[C@@]43[C@]12C (some centres not stated) [NIMONOL PP2]	68.7	55.3	73.5
